Measured values reported in PubChem BioAssay (NCI).
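Tested at 5 concentrations; 48 h exposure; 96-well plates; endpoints linearly interpolated, else capped at highest concentration. GI50: concentration for 50% inhibition of growth. At the TGI there is no net growth.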

How the values were obtained:
Test in all cases: growth of human tumour cells (NCI), 48 h; in the data active means GI50 below about 0.43 µM; inactive means the rest
786-0 renal = system: 786-0 renal
A498 renal = system: A498 renal
A549 NSCLC = system: A549 NSCLC
ACHN renal = system: ACHN renal
BT-549 breast = system: BT-549 breast
CAKI-1 renal = system: CAKI-1 renal
CCRF-CEM leukemia = system: CCRF-CEM leukemia
COLO 205 colon = system: COLO 205 colon
DU-145 prostate = system: DU-145 prostate
EKVX NSCLC = system: EKVX NSCLC
HCC-2998 colon = system: HCC-2998 colon
HCT-116 colon = system: HCT-116 colon
HCT-15 colon = system: HCT-15 colon
HL-60(TB) leukemia = system: HL-60(TB) leukemia
HOP-62 NSCLC = system: HOP-62 NSCLC
HOP-92 NSCLC = system: HOP-92 NSCLC
HS 578T breast = system: HS 578T breast
HT29 colon = system: HT29 colon
IGROV1 ovarian = system: IGROV1 ovarian
K-562 leukemia = system: K-562 leukemia
KM12 colon = system: KM12 colon
LOX IMVI melanoma = system: LOX IMVI melanoma
M14 melanoma = system: M14 melanoma
MALME-3M melanoma = system: MALME-3M melanoma
MCF7 breast = system: MCF7 breast
MDA-MB-231 breast = system: MDA-MB-231 breast
MDA-MB-435 = system: MDA-MB-435
MDA-MB-468 breast = system: MDA-MB-468 breast
MOLT-4 leukemia = system: MOLT-4 leukemia
NCI-H226 lung = system: NCI-H226 lung

COc1cccc(-c2ccc(/C=N/NC(=O)c3[nH]c4ccc(Br)cc4c3-c3ccccc3)s2)c1
inactive: GI50 (786-0 renal) 3.7 µM | GI50 (A498 renal) 82.3 µM | GI50 (A549 NSCLC) 4.71 µM | GI50 (ACHN renal) 3.96 µM | GI50 (BT-549 breast) 3.96 µM | GI50 (CAKI-1 renal) 3.19 µM | GI50 (CCRF-CEM leukemia) 3.15 µM | GI50 (COLO 205 colon) 3.28 µM | GI50 (DU-145 prostate) 3.62 µM | GI50 (EKVX NSCLC) 7.39 µM | GI50 (HCC-2998 colon) 4.21 µM | GI50 (HCT-116 colon) 2.97 µM | GI50 (HCT-15 colon) 3.36 µM | GI50 (HL-60(TB) leukemia) 2.16 µM | GI50 (HOP-62 NSCLC) 4.39 µM | GI50 (HOP-92 NSCLC) 9.83 µM | GI50 (HS 578T breast) 2.4 µM | GI50 (HT29 colon) 2.81 µM | GI50 (IGROV1 ovarian) 4.26 µM | GI50 (K-562 leukemia) 2.18 µM | GI50 (KM12 colon) 3.08 µM | GI50 (LOX IMVI melanoma) 2.45 µM | GI50 (M14 melanoma) 3.76 µM | GI50 (MALME-3M melanoma) 5.66 µM | GI50 (MCF7 breast) 1.82 µM | GI50 (MDA-MB-231 breast) 4.77 µM | GI50 (MDA-MB-435) 1.61 µM | GI50 (MDA-MB-468 breast) 2.67 µM | GI50 (MOLT-4 leukemia) 3.37 µM | GI50 (NCI-H226 lung) 3.39 µM
19.3 µM: TGI (KM12 colon) | TGI (MDA-MB-468 breast)
12.9 µM: TGI (COLO 205 colon)
> 100 µM: TGI (786-0 renal) | TGI (A498 renal) | TGI (A549 NSCLC) | TGI (ACHN renal) | TGI (DU-145 prostate) | TGI (EKVX NSCLC) | TGI (HCC-2998 colon) | TGI (HCT-15 colon) | TGI (HOP-62 NSCLC) | TGI (HOP-92 NSCLC) | TGI (IGROV1 ovarian) | TGI (K-562 leukemia) | TGI (M14 melanoma) | TGI (MALME-3M melanoma) | TGI (MCF7 breast)
63.5 µM: TGI (CAKI-1 renal)
8.62 µM: TGI (HS 578T breast)
4.56 µM: TGI (MDA-MB-435)
9.44 µM: TGI (BT-549 breast)
10.5 µM: TGI (HCT-116 colon)
5.21 µM: TGI (HL-60(TB) leukemia)
94.7 µM: TGI (MDA-MB-231 breast)
14.9 µM: TGI (MOLT-4 leukemia)
13.3 µM: TGI (CCRF-CEM leukemia)
36.4 µM: TGI (LOX IMVI melanoma)
10.1 µM: TGI (HT29 colon)
